In US20220152090A1, “METHOD FOR TREATING AMYLOIDOGENIC DISEASE” (priority 2020, published 2022):
One block for each compound: values may come before it.

Experiments:
SH-SY5Y cells = assay: Cell viability (CCK8) of Aβ42-treated neuronal cells; type: cell-based
Description: The general procedures used for preparing the transient LPS-Aβ42 complex and the validation of cell cytotoxicity were as follows. First, Aβ42 (100 μM) and LPS (1000 nM, derived from Escherichia coli O111:B4, Sigma-Aldrich) were added to each group medium containing 2.5% dimethyl sulfoxide (DMSO) and then sterilized by using UV light. The medium was then replaced and the remaining mixture was incubated for 72 hours at 37° C. in 5% CO2 humidified air. Cell viability was measured using the CCK8 (Sigma-Aldrich 96992) assay according to the manufacturer's protocol. A 0.22-μm filter (non-pyogenic, Millex®-GV) was used to remove unbound LPS, if needed, in the LPS-Aβ42 solution.
Cell viability. Neural cells were maintained in MEM (Gibco 11095-080) supplemented with 10% FBS and 1×MEM NEAA (Gibco 11140-050). Neural SH-SY5Y cells were plated at a density of 8000 cells per well in 96-well plates (Costar 3599) and allowed to attach overnight at 37° C. in 5% CO2 humidified air. Aβ42 (100 μM), LPS (1000 nM), SAuM (1000 nM), or colistin (1000 nM) were then added to each group medium containing 2.5% dimethyl sulfoxide (DMSO) and sterilized by using UV light. The medium was then replaced every day and the remaining mixture was incubated for 72 hours at 37° C. in 5% CO2 humidified air. Cell viability was measured using the CCK8 (Sigma-Aldrich 96992) assay according to the manufacturer's protocol. A 0.22-μm filter (non-pyogenic, Millex®-GV) was used to remove unbound LPS, if needed, in the LPS-Aβ42 solution.

Aβ42 = target: T1, Aβ42 (Homo sapiens, UniProt P05067); assay: Western blot of Aβ42 degradation in SH-SY5Y cells; type: cell-based; settings: for LPS-induced degradation of Aβ42 in the presence of inhibitor: SH-SY5Y; for Aβ42 degradation in SH-SY5Y cells co-treated with the agent: Western blotting, FIG. 13
T1 construct: Aβ42 peptides were collected from the entire volume of the cell culture medium and total cell lysates; host or cells: Peptide added to the medium of SH-SY5Y cells; not made by the cells
Description: Western Blots. To assess the level of Aβ42 in the cell culture medium, Aβ42 peptides were collected from the entire volume of the cell culture medium and total cell lysates and mixed with protein sample buffer (final 0.1 M Tris-HCl, pH6.8, 10% glycerol, 2% SDS, 1% […], and 0.01% bromophenol blue) for Western blot analysis. The samples of cell mixture were analyzed by SDS-PAGE gel electrophoresis and transferred to a PVDF membrane (Millipore). After blocking with blocking buffer containing 5% w/v nonfat dry milk in PBST (1× phosphate-buffered saline and 0.1% Tween 20) at room temperature for 1 h, the membrane was incubated with a primary antibody diluted in the blocking buffer at 4° C. overnight. After hybridization with primary antibody, the membrane was washed three times with PBST before the addition of an HRP-conjugated secondary antibody against the primary antibody. The membrane was then washed three times with PBST before immunoreactive bands were detected by chemiluminescence (PerkinElmer) or Ponceau S staining (Bersting Technology).

T1 sequence (P05067 672-713 limits assumed): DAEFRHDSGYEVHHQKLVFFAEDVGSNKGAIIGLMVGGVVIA

Compound: Cn1cnc(=N)c2[nH]cnc21 [3MA, methyladenine]
rescue effect of LPS against Aβ42 neuronal toxicity in the presence of inhibitor (SH-SY5Y cells): increasing the cell death | LPS-induced degradation of Aβ42 in the presence of inhibitor (Aβ42): decreasing the degradation of Aβ42

Compound: colistin
rescue effect of LPS against Aβ42 neuronal toxicity in the presence of inhibitor (SH-SY5Y cells): abolished

Aβ42 degradation in SH-SY5Y cells co-treated with the agent (Aβ42): able to cause Aβ42 degradation
Compound: CCCCCCCCCCC[C@@H](O)CC(=O)N[C@H]1[C@H](OC[C@H]2O[C@H](OP(=O)(O)O)[C@H](NC(=O)C[C@H](O)CCCCCCCCCCC)[C@@H](OC(=O)C[C@H](O)CCCCCCCCCCC)[C@@H]2O)O[C@H](CO)[C@@H](OP(=O)(O)O)[C@@H]1OC(=O)C[C@H](O)CCCCCCCCCCC [PIX, 2-deoxy-6-O-(2-deoxy-3-O-[(3R)-3-hydroxytetradecanoyl]-2-{[(3R)-3-hydroxytetradecanoyl]amino}-4-O-phosphono-β-D-glucopyranosyl)-3-O-[(3R)-3-hydroxytetradecanoyl]-2-{[(3R)-3-hydroxytetradecanoyl]amino}-1-O-phosphono-α-D-glucopyranose]

Compound: Monophosphoryl lipid A [MPL]
Aβ42 degradation in SH-SY5Y cells co-treated with the agent (Aβ42): able to cause Aβ42 degradation

Compound: CN(C)CCCN1c2ccccc2Sc2ccc(Cl)cc21 [chlorpromazine]
LPS-induced degradation of Aβ42 in the presence of inhibitor (Aβ42): suppressed

Compound: CCCCCCCCCCC[C@@H](O)CC(=O)N[C@H]1[C@H](OC[C@H]2OC(O)[C@H](NC(=O)C[C@H](O)CCCCCCCCCCC)[C@@H](OC(=O)C[C@H](O)CCCCCCCCCCC)[C@@H]2O)O[C@H](CO)[C@@H](OP(=O)(O)O)[C@@H]1OC(=O)C[C@H](O)CCCCCCCCCCC (stereo partly drawn) [PXI, 2-deoxy-6-O-(2-deoxy-3-O-[(3R)-3-hydroxytetradecanoyl]-2-{[(3R)-3-hydroxytetradecanoyl]amino}-4-O-phosphono-β-D-glucopyranosyl)-3-O-[(3R)-3-hydroxytetradecanoyl]-2-{[(3R)-3-hydroxytetradecanoyl]amino}-D-glucopyranose]
Aβ42 degradation in SH-SY5Y cells co-treated with the agent (Aβ42): able to cause Aβ42 degradation

Compound: methyl-β-cyclodextrin
LPS-induced degradation of Aβ42 in the presence of inhibitor (Aβ42): suppressed

Compound: CO/C1=C\C(C)=C\[C@@H](C)[C@@H](O)[C@@H](C)C/C(C)=C/C=C/[C@H](OC)[C@@H]([C@@H](C)[C@@H](O)[C@H](C)[C@@]2(O)C[C@@H](O)[C@H](C)[C@@H](C(C)C)O2)OC1=O [BA, bafilomycin A1]
rescue effect of LPS against Aβ42 neuronal toxicity in the presence of inhibitor (SH-SY5Y cells): increasing the cell death | LPS-induced degradation of Aβ42 in the presence of inhibitor (Aβ42): decreasing the degradation of Aβ42

LPS-induced degradation of Aβ42 in the presence of inhibitor (Aβ42): suppressed
Compound: O=C(N/N=C/c1ccc(O)c(O)c1)c1cc2ccccc2cc1O [dynasore]
